Experiments:
[1] = Loading of taxanes onto PLGA TIPS microspheres via antisolvent precipitation (drug loading efficiency, UV 229 nm); format: physicochemical; details: for taxane loaded onto the microspheres from the solution: 0.1% (w/v) pure taxane in ethanol, 5 mg dry PLGA TIPS microspheres, within 60 minutes of initiating mixing
Description: A facile method was developed to load DTX and other taxanes such as paclitaxel and cabazitaxel onto TIPS microspheres via antisolvent precipitation (FIG. 1). 5 mg of PLGA TIPS microspheres were transferred into 20 ml clear Type 1B boroscilicate glass vials and sealed with a butyl injection stopper. 4.5 mL of ultrapure water was added to the vial and vortexed for 10 seconds. 0.5 ml of 0.1% (w/v) taxane in ethanol, or a formulation of docetaxel or paclitaxel matching Taxotere® or Taxol® was added using a 1 mL syringe with a 25G needle through the rubber stopper, when the vial was inverted. The vial was then vortexed for 10 seconds and placed on a roller mixer (IKA® Roller 6 Digital; 60 rpm) at room temperature for predetermined periods (5, 15, 30, 60, 120 minutes).
Drug loading efficiency (DLE) of the taxane, such as DTX, onto the TIPS microspheres at each time-point was calculated according to Equation 1. The amount of free taxane left in the solution was measured by UV spectroscopy at the wavelength of 229 nm using a Nanodrop 2000c spectrophotometer (Thermo Scientific, Waltham, MA, USA).
• 1. Dry TIPS PLGA microspheres (size range of 250-350 μm): Docetaxel loaded onto 5 mg PLGA TIPS microspheres as described directly above. […] An equivalent number of solid PLGA microspheres (size range of 250-350 μm) to the quantity of microspheres in 5 mg of dry TIPS PLGA microspheres were transferred into 20 ml clear Type 1B boroscilicate glass vials and sealed with a butyl injection stopper. […] Drug loading efficiency (DLE) of docetaxel (DTX) onto the TIPS microspheres at each time-point was calculated according to Equation 1. The amount of free docetaxel left in the solution was measured by UV spectroscopy at the wavelength of 229 nm using a Nanodrop 2000c spectrophotometer (Thermo Scientific, Waltham, MA, USA). […]

PC3 xenograft tumour = test: In vivo tumour growth inhibitory activity, PC3 xenograft; parameters: species or system NSG immunodeficient mice
Description: Female NSG™ immunodeficient mice (NOD.Cg-PrkdscidIl2rgtm1Wjl/SzJ; Charles River), aged 6-7 weeks and 18-20 g in body weight, were acclimatised for 1 week prior to injection of tumour cells. PC3 cells (5.0×10^6 cells in 100 μl phosphate buffered saline [PBS]) were injected subcutaneously into the right flank of each mouse. The dimensions of tumour were measured three times per week using digital callipers and the tumour volume calculated using the following formula: […]

[2] = Measurement of DTX in plasma after administration (LC-MS/MS); format: in vivo, BALB/cAnNCrl mice
Description: Docetaxel-loaded TIPS microspheres were prepared via anti-solvent precipitation, as outlined above. […] For measurement of circulating DTX in plasma, blood samples were collected via the tail vein at day 0 (pre-dose), and days 1, 2, 3, 7, 10 then every 5 days until day 35 immediately before the end of in life phase. Blood samples were collected into 10 μl capillaries containing sodium heparin (Hirschmann, Eberstadt, Germany) and placed in wells of a 2 ml deep well plate that was stored at −80° C. until extraction.
On the day of the extraction, calibration curve and sample plates were thawed. 125 μl of water:acetonitrile containing 0.4% […] was added to blanks, calibration curve and QCs. 125 μl of 70:30 water:acetonitrile containing 0.4% DMSO was added to all samples. 40 μl of each […]:water:acetonitrile sample was taken and protein precipitated with 120 μl acetonitrile containing DTX-D9 (25 nM). Samples were mixed and centrifuged. Supernatant was taken and diluted 40:60 with 0.5% sodium acetate (20 μM) in ammonium acetate (10 mM, pH5).
Liquid chromatography-mass spectrometry analysis was carried out with a Waters (Milford, MA) H-class Acquity solvent manager and sample manager on a Waters Acquity HSS PFP column (1.8 μm, 50 mm×2.1 mm id) with a gradient consisting of 10 mM ammonium acetate (pH 5.0) and acetonitrile mobile phases. The flow rate was 0.6 ml/min and the run time 5.6 minutes. Analyte and internal standard were ionised using electrospray ionisation in positive ion mode. Detection of analytes was via tandem mass spectrometry (MS/MS) using a Waters Xevo TQ-S mass spectrometer in the multiple reaction monitoring (MRM) mode. For DTX and DTX-D9 (IS), the transitions m/z 830.4-248.1/304.2 and m/z 839.4-313.0 were monitored respectively. The calibration curve was linear over the concentration range […].

PC3 cells = test: Colony formation assay with perfusate from DTX-TIPS microspheres; format: cell-based, human; details: DTX released into perfusate during the first 5 days
Description: PC3 cells were maintained in Ham's F12-K medium (Kaighn's modification) (Invitrogen, 21127-022) supplemented with 10% (v/v) foetal bovine serum (FBS) and 1% antibiotics (referred to henceforth as complete medium). Cells were cultured at 37° C. under 5% CO2 atmosphere in a humidified incubator.
PC3 cells cultured in 6 well plates were incubated for 48 hours in 2 ml of perfusate (conditioned complete culture medium) collected from DTX-TIPS microspheres loaded into the perfusion system, as outlined above. Colony formation assays were performed as previously described (Franken NAP, Rodermond HM, Stap J, Haveman J, van Bree C. Clonogenic assay of cells in vitro. Nat Protoc. 2006; 1(5):2315-2319). […] The colonies were counted in ImageJ using the ‘Colony Counter’ plug in (processing parameters: size 100-30,000; circularity 0.5-1) (https://imagej.nih.gov/ij/plugins/colony-counter.html).
Plating efficiency (PE) was estimated by dividing the number of colonies counted by the number of cells initially seeded. […]

[3] = Docetaxel release from DTX-TIPS microspheres in dynamic perfusion system; format: physicochemical; details: PBS pH 7.4, 37 C, 0.01 mL/min; over 5 days
Description: Release profile of DTX from the TIPS microspheres was investigated using a dynamic perfusion system to simulate tissue perfusion of the drug-device combination in the physiological milieu when used in clinic following radical prostatectomy. Thus, the perfusion system was placed inside an incubator at 37° C. and physiological simulated medium (phosphate buffed saline (PBS); pH 7.4) was used as perfusate. DTX-loaded microspheres were mixed with 100 μl of 70% (v/v) GranuGel® (Convatec, UK) diluted in ultrapure water and the mixture was placed between two 25 mm circular filter papers (Whatman® qualitative cellulose filter paper, Grade 1), where their positions were held by a Swin-Lok™ plastic membrane filter holder. A hypodermic needle (18G×40 mm) connecting the outlet of the filter holder, was inserted through the lid of a 50 ml polypropylene container to collect the perfusate. PBS was pumped through the filter holder by a peristaltic pump (Harvard Apparatus) at a flow rate of 0.01 mL/min. […]
The amount of DTX released in the perfusate was determined using a predetermined standard curve. At each measurement, the concentration of DTX in the release medium collected in the polypropylene container was determined by UV spectroscopy at 229 nm as described above, to calculate the cumulative DTX release according to Equation 2.

[4] = DTX concentration in tissues from explanted organs (LC-MS/MS); format: in vivo, NSG mice; details: NSG, mouse, intravenous, 10 mg/kg; for concentration at 1 day: day 1 post-administration; for concentration at 10 day: day 10 post-administration; for concentration at 35 day: day 35 post-administration
Description: At the end of the in-life phase (day 1, 10 and 35 post-treatment) the mice were euthanised by overdose of CO2, followed by cervical dislocation and organs (heart, liver, kidneys, lungs and spleen) were collected, weighed and immediately frozen in liquid nitrogen before storage at −80° C. until further analysis. Evaluation of docetaxel concentrations was carried out by liquid chromatography tandem mass spectrometry in tissue following homogenisation in 3 ml/g (spleens 5 ml/g) 10 mM PBS using a Precellys 24 homogeniser (Bertin technologies, Montigny-le-Bretonneux, France). 45 μl tissue homogenate was spiked with 5 μl DMSO, samples were mixed and protein precipitated with 150 μl acetonitrile containing DTX-D9 as internal standard (25 nM). Samples were mixed and centrifuged. Supernatant was taken and diluted 40:60 with 0.5% sodium acetate (20 μM) in ammonium acetate (10 mM, pH 5). Blanks, calibration curve and QCs were prepared as above using tissues obtained from the same strain of mice (NSG) and spiked with DMSO, working calibration standard and working QC respectively. Blanks consisted of protein precipitated with acetonitrile alone, blank+, standards and QCs were protein precipitated with acetonitrile containing DTX-D9.

CO[C@H]1C(=O)[C@]2(C)[C@@H](OC)C[C@H]3OC[C@@]3(OC(C)=O)[C@H]2[C@H](OC(=O)c2ccccc2)[C@]2(O)C[C@H](OC(=O)[C@H](O)[C@@H](NC(=O)OC(C)(C)C)c3ccccc3)C(C)=C1C2(C)C [cabazitaxel]
taxane loaded onto the microspheres from the solution [1]: about 60%

CC(=O)O[C@@]12CO[C@@H]1C[C@H](O)[C@@]1(C)C(=O)[C@H](O)C3=C(C)[C@@H](OC(=O)[C@H](O)[C@@H](NC(=O)OC(C)(C)C)c4ccccc4)C[C@@](O)([C@@H](OC(=O)c4ccccc4)[C@H]21)C3(C)C [docetaxel, Docetaxel]
tumour volume over the study period (PC3 xenograft tumour; Example 8, compared with saline or control microsphere group): Tumour growth inhibition was most apparent | tumour volume / tumour growth inhibition (PC3 xenograft tumour; Example 9, DTX-TIPS compared with I.V. DTX, until day 21): did not increase | plasma DTX level, I.V. DTX relative to DTX-TIPS group ([2]; 1 hour post-administration): 102 fold | plasma DTX level, I.V. DTX relative to DTX-TIPS group ([2]; 24 hour post-administration): 8 fold | DTX in plasma ([2]; 48 hours, 72 hours, day 10 and day 15, I.V. 10 mg/kg once weekly for three weeks): detectable levels of DTX remaining in the plasma | toxicity against the PC3 cells in the colony forming assay (PC3 cells): 100% | cumulative release of total DTX loaded [3]: approximately 95% | taxane loaded onto the microspheres from the solution [1]: Approximately 80% | time of maximum loading onto the TIPS particles ([1]; room temperature, no heating or cooling steps): ≤ 60 min | concentration at 1 day ([4]; Heart): 340 ± 42.9 nM | concentration at 10 day ([4]; Heart): 90.1 ± 19.4 nM | concentration at 35 day ([4]; Heart): 0.97 ± 2.37 nM | concentration at 1 day ([4]; Kidney): 115 ± 22.4 nM | concentration at 10 day ([4]; Kidney): 115 ± 22.4 nM | concentration at 35 day ([4]; Kidney): 1.17 ± 2.86 nM | concentration at 1 day ([4]; Liver): 87.3 ± 7.85 nM | concentration at 10 day ([4]; Liver): 27 ± 11.9 nM | concentration at 35 day ([4]; Liver): 0 nM | concentration at 1 day ([4]; Lung): 641 ± 92.4 nM | concentration at 10 day ([4]; Lung): 256 ± 35.5 nM | concentration at 35 day ([4]; Lung): 13.8 ± 16.2 nM | concentration at 1 day ([4]; Spleen): 14.1 ± 11.9 nM | concentration at 10 day ([4]; Spleen): 35.3 ± 51.9 nM | concentration at 35 day ([4]; Spleen): 0 nM
